Patent publication EP1276895B1, “METHOD FOR THE IDENTIFICATION OF ACTIVE SITE PROTEASE INACTIVATORS” (THE UNIVERSITY OF GEORGIA RESEARCH FOUNDATION, INC., priority 2000, dated 2001)
Residues, ends and D or L forms follow the SMILES beside them. *: point of attachment. AFC = O=c1cc(C(F)(F)F)c2ccc(N*)cc2o1; Cbz = O=C(OCc1ccccc1)*

Columns and labels:
[1] = system: purified Taenia solium cysteine protease; experiment: Substrate cleavage screen of AFC-linked synthetic substrates (Step II), purified protease; type: biochemical; conditions: 1 ug purified protease, 1 ug substrate, Citrate pH 4.9 with 0.01 M cysteine, 18 h, 37 °C
Protocol: In this step, the most efficacious substrate for detection of the cysteine protease (high Kcat substrate) was determined in vitro along with those substrates which were not well cleaved (low kcat substrates). From this point forth, the following conditions refer to all assays: "assay buffer" refers to 0.4 M Citrate, pH 4.9 (the pH optima of the protease). Incubation time was 18 hours at 37°C. These conditions were determined by our preliminary data to be best for kinetic evaluation of the protease. […] The experiments were conducted in […] Borosilicate mini-culture tubes (Fisher Scientific), and a fluorometer (Turner) was employed for detection of AFC cleavage.
Approximately 1 ug (or a proteolytically detectable amount) of the purified target cysteine protease was incubated individually, with 1 ug of each of the available substrates in 500 uL of assay buffer. During this setup, the substrate was pre-incubated in the assay buffer for a short period of time (20 minutes) in order to reach an equilibrated status before the addition of the protease. Cleavage assessments were based upon the property of the protease to cleave synthetic peptide substrates linked at the C-terminus to 7-Amino-4-Trifluoromethyl Coumarin (AFC) as previously described. AFC linked tripeptides, dipeptides, and monopeptides, (with a variety of permutations at P3-P1) were available from Enzyme Systems Products (Livermore, CA), and were used as the source of the subset. Following incubation of enzyme preparations overnight (18 h, 37 °C) with peptide in assay buffer (Citrate, pH 4.9, supplemented with 0.01 M cysteine), free AFC concentrations were measured fluorometrically (excitation 405 nm, emission 505 nm). The proteolytic cleavage released the AFC group, which was measurable as a free molecule by a standard fluorometer and converted into molar quantities, based upon a previously established standard curve. The simplicity of AFC detection by the fluorometer was a key factor which quickened and simplified the procedures.
In the assay, 1 ug of the purified Taenia cysteine protease was added to a saturating amount of Z-Phe-Arg-AFC (4X10^-5 M) in assay buffer. The experiment was conducted in triplicate and repeated at least 5 times until we were certain that variability in AFC cleavage was not statistically significant.
(§1) Vmax was calculated for the cleavage of substrates by the purified target protease and Vmax was calculated for substrates cleaved by the crude mix protease using conventional kinetic modeling calculations already described in the art.

[2] = system: Taenia solium crude mix; experiment: Substrate cleavage screen of AFC-linked synthetic substrates (Step II), crude mix; type: biochemical; conditions: 0.4 M Citrate pH 4.9, 18 h, 37 °C
Protocol: In order to prepare the Taenia solium "crude mix", dry frozen Taenia solium cysts were obtained from 6-12 month old cysticercotic pigs from villages in an endemic area of porcine cysticercosis in Mexico. Metacestodes were carefully dissected from the parasitized tissues, washed three times with PBS, and lyophilized. Parasite extracts were prepared by suspending 0.1 grams of dry frozen cysts in 10 ml of extraction buffer (0.4 M citrate, pH 4.9). The cysts were vortexed for three five-minute intervals with intermittent incubations (5 min) at 4 °C. Particulate material was removed by centrifugation (20,000 x g, 120 min) and the resulting soluble fraction filtered ([…]). In assay buffers, the detectable amount of the crude mix, as described above, was employed and incubated with the target substrates.
as §1
Similar steps were employed here as they are for the purified protease. As will be noted, similar conclusions were noted on the identification of the protease inhibitor on the crude mix, and the identical hypothesis was derived (Fig. 4b). It is notable that the most cleaved substrates were Z-FR-AFC, Z-FAR-AFC, Z-AAK-AFC, AP-AFC, Z-VLR-AFC, respectively. This cleavage pattern, noted along with others, was highly similar to the cleavage pattern due to the purified protease. […] Moreover, non-cleaved substrates were also highly similar, although there were subtle variations in relative cleavage for the non-cleaved substrates. However, this would be expected as fluorometric readings will tend to have subtle variation at lower readings due to background effects.

[3] = system: purified cysteine protease of Taenia solium; experiment: Human IgG degradation inhibition test, western blot (Step IV), purified enzyme; type: biochemical; conditions: 18 hrs, 37°C, E 64 10^-6 M, vehicle 10^-3 M
Protocol: To conduct this assessment, a western blot was performed. IgG digestion was detected by incubating 20 ul of T. solium purified enzyme or T. so/ium extract with 1 ug of human IgG (Sigma, St. Louis) in a final volume of 100 ul of assay buffer. Exogenous thiol activation was assessed by incubating the assay in the presence or absence of cysteine. The catalytic class of the IgG protease was determined by pre-incubating the following proteinase inhibitors at their active concentrations, with the enzyme: E 64 (10^-6 M, cysteine proteinases), phenylmethylsulfonyl fluoride (PMSF) (10^-3 M, serine proteinases), pepstatin A (10^-6 M, aspartic proteinases), and 1,10 phenanthroline (10^-3 M, metalloproteinases), and the vehicle, Mu-Leu-Tyr-AFC (10^-3 M). After addition of IgG, the assay was incubated overnight (37°C, 18 hrs). Subsequently, 100 ul of the mixture was boiled in sodium dodecyl sulfate polyacrylamide gel electrophoresis (SDS-PAGE) sample buffer with 2% 2-mercaptoethanol, separated by 12.5% SDS-PAGE, and blotted onto a polyvinylidene difluoride membrane. Tris buffered saline containing 0.1% bovine serum albumin and 0.05% Tween 20 (TBS-BSA) was used to block nonspecific binding. […]

[4] = system: purified Taenia solium cysteine protease; experiment: Inhibition assay of protease inactivators against the high Vmax cocktail, EC100 and Ki ranking (Step VII B); type: biochemical
Excerpt: Once the protease inactivators were synthesized in the organic laboratory, they were to be tested for the lowest efficacious concentrations at which they induced 100% inhibition of the target protease (EC100). The top percent cocktail that was employed in the final vehicle selection step of Step III was employed as the source of competition for the inhibitors. In this case, this was the […] which was comprised of Z-FR-AFC, Z-FAR-AFC, Z-AP-AFC, Z-AAK-AFC, and Z-VLR-AFC. The final result would be a ranking of transition state candidate protease inactivators with a high ranking directly correlating to a low EC100 value. The following steps describe the assay:
Step A: Initial Screening. To set up the test control, each protease inactivator was first incubated with the […] (which provided the final differentiation of vehicles in Step III). To begin with, the protease inactivator was incubated at a concentration of 3 X 10^-9M in 500 ul of assay buffer ([…], pH 4.9 supplemented with 10mM L-cysteine). This concentration was determined, after a series of inhibitor dilutions identified, to be the best inhibitor concentration at which a differentiation in inhibitor potential could be noted. Next, a concentration equal to 4 X 10^-5M for each of the individual cocktail components, was added to the mix. The components were allowed to equilibrate for a period of 30 minutes. Finally, active purified enzyme was added to the tubes at a concentration which was always at least 50 times less than the concentration of the lowest concentration in the mix (to provide saturating conditions.) This concentration varied from purification to purification and the amount added depended upon the yield and specific activity of the purified protease.
Positive controls were set up similarly as described for test controls, except that solvent was added in substitution for the protease inactivator (in a volume equal to the […] volume addition). All of the protease inactivators could be dissolved in dimethylsulfoxide (DMSO), and therefore, this was the solvent of choice. Negative controls were set up by adding the protease inactivator and the cocktail substrates in a tube, without the protease. All potential non-proteolytic induced liberation of AFC was therefore controlled for in this tube (a feature which also insured stability of the AFC substrates, since these substrates will freely liberate AFC when unstable).
All controls were set up in triplicate, and experiments repeated a minimum of five times. The assays were incubated at 37°C, overnight. Percent inhibition was calculated as: % Inhibition = ((AFC positive for ʺSIʺ-AFC negative for ʺSIʺ)-(AFC test-AFC negative for ʺSIʺ))/(AFC positive for ʺSIʺ-AFC negative for ʺSIʺ) × 100 [formula]
Because of this, a dilution study was required in order to determine a viable ranking. Thus, the concentration of each of the protease inactivators was lowered with a dose response setup until the most efficacious concentration for 100% inhibition (EC100) could be determined. […] The final result of the assay was a ranked candidate list of protease inactivators. A lower EC100 was attributable to a higher ranking and vice-versa.
In order to determine Ki, all of the high Vmax cocktail substrates were employed for Ki determination (since Ki of the inhibitor for the enzyme is the same regardless of the substrate). To insure the highest accuracy, Ki was to be determined upon a minimum of at least three of the high Kcat substrates. Nonlinear fitting and the Dixon plot were both employed to determine Ki of the top ranked protease inactivators. A further plot was constructed using either Eadie Hofstee as well as Hanes to determine the mode of inhibition. These methods were used in order to determine the type of inhibition.

[5] = system: Taenia crassiceps cysts; experiment: Short-term prophylactic protection of BALB/c mice from cysticercosis infection; type: in vivo; conditions: pre-injected two days, 10 T. crassiceps cysts/mouse, dosed daily for four weeks, cysts counted after one month, versus untreated controls

## N=C(N)NCCC[C@H](NC(=O)[C@H](Cc1ccccc1)NC(=O)OCc1ccccc1)C(=O)Nc1ccc2c(C(F)(F)F)cc(=O)oc2c1 [Z-FR-AFC, Z-Phe-Arg-AFC, reference compound] (Cbz-Phe-Arg-{AFC})
[1]
  cleavage of AFC-linked substrate (Vmax): cleaved
[1]; listed as Z-Phe-Arg-AFC
  cleavage of AFC-linked substrate (Vmax): highest Vmax
[2]
  cleavage of AFC-linked substrate (Vmax): most cleaved

## CC(C)C[C@H](NC(=O)[C@@H](NC(=O)OCc1ccccc1)C(C)C)C(=O)N[C@@H](CCCNC(=N)N)C(=O)Nc1ccc2c(C(F)(F)F)cc(=O)oc2c1 [Z-VLR-AFC] (Cbz-Val-Leu-Arg-{AFC})
[2]
  cleavage of AFC-linked substrate (Vmax): most cleaved

## CC(C)CC(NC(=O)C1OC1C(=O)O)C(=O)NCCCCNC(=N)N (stereo not shown) [E64, reference compound]
[3]
  inhibition of cleavage of human IgG: Inhibition was noted

## C[C@H](NC(=O)OCc1ccccc1)C(=O)N[C@@H](C)C(=O)N[C@@H](CCCCN)C(=O)Nc1ccc2c(C(F)(F)F)cc(=O)oc2c1 [Z-AAK-AFC] (Cbz-Ala-Ala-Lys-{AFC})
[2]
  cleavage of AFC-linked substrate (Vmax): most cleaved

## Leu-Phe-Ketoamide-Pyridyl [K-Pyr, reference compound]
[4]; in vitro, concentration not stated in Table 4
  % Inhibition of T. solium CP in vitro: 80%
[5]
  % Prophylactic protection of BALB/c mice: 40%

## CC(C)C[C@@H](/C=C/S(C)(=O)=O)NC(=O)[C@H](CC(C)C)NC(=O)[C@H](CC(C)C)NC(=O)OCc1ccccc1 [Z-LLL-VS, Z-Leu-Leu-Leu-vinylsulfone]
[4]; dilution study, nanomolar levels
  ranking of protease inactivators by EC100: top inhibitors

## C[C@H](NC(=O)[C@H](Cc1ccccc1)NC(=O)OCc1ccccc1)C(=O)N[C@@H](CCCNC(=N)N)C(=O)Nc1ccc2c(C(F)(F)F)cc(=O)oc2c1 [Z-FAR-AFC] (Cbz-Phe-Ala-Arg-{AFC})
[2]
  cleavage of AFC-linked substrate (Vmax): most cleaved
